The values that follow are results of earlier work, collected in patent US20160311746A1, “METHOD OF PRODUCING ADIPIC ACID OR AT LEAST A RESULTANT PRODUCT THEREOF” (BASF SE, priority 2013, published 2016).

The conditions of this data set: at about 47° C.

Turning to `O=C(O)/C=C\C=C/C(=O)O` [cis,cis-muconic acid], the solubility in water result is “about 1 g per 100 g of water”.
